Experimental data as given in patent publication US20240238297A1, “USES AND METHODS FOR RECURRENT PRIMARY CNS NEOPLASMS” (CHIMERIX, INC., priority 2021, published 2024).
Structures can show the parent of a compound that is named as a salt.

Tests used:
[1] = solubility in water, ONC-201 dihydrochloride salt vs free base; type: physicochemical
Experimental: (§1) Dihydrochloride salts of compounds within the class of impiridones of which ONC-206 is a member, achieve unexpected technical effects. […] In addition, after two months at 25° C. and at 40° C., the percentage of impurities in the dihydrochloride salt is not detected and 3%, respectively; while for the free base the corresponding the percentage of impurities is 20% and 24%, respectively. This technical effect appears to extend to the class of impiridones.

[2] = stability: percentage of impurities after two months; type: physicochemical
Experimental: as §1

[3] = system: diffuse midline glioma, H3 K27M-mutant; conditions: patients with DMG H3K27M; cited from earlier work
[4] = system: high grade gliomas; conditions: advanced cancer patients; cited from earlier work
[5] = system: endometrial cancer; conditions: advanced cancer patients; cited from earlier work
[6] = pharmacokinetics/toxicokinetics in dogs; conditions: dog, in vivo

Cc1ccccc1CN1C(=O)C2=C(CCN(Cc3ccccc3)C2)N2CCN=C12 [ONC-201 dihydrochloride salt, 7-benzyl-4-(2-methylbenzyl)-2,4,6,7,8,9-hexahydroimidazo[1,2-a]pyrido[3,4-e]pyrimidin-5(1H)-one]
solubility in water [1]: greater than 50 mg/mL | percentage of impurities ([2]; after two months at 25° C.): not detected | percentage of impurities ([2]; after two months at 40° C.): 3%

Cc1ccccc1CN1C(=O)C2=C(CCN(Cc3ccccc3)C2)N2CCN=C12 [ONC201, 7-benzyl-4-(2-methylbenzyl)-2,4,6,7,8,9-hexahydroimidazo[1,2-a]pyrido[3,4-e]pyrimidin-5(1H)-one]
tumor response in patients [3]: induced durable tumor regressions | RANO response [4]: several patients achieved a RANO response | PFS compared to historical control [5]: several patients experienced prolonged PFS

Cc1ccccc1CN1C(=O)C2=C(CCN(Cc3ccccc3)C2)N2CCN=C12 [ONC-201 free base, 7-benzyl-4-(2-methylbenzyl)-2,4,6,7,8,9-hexahydroimidazo[1,2-a]pyrido[3,4-e]pyrimidin-5(1H)-one]
solubility in water [1]: less than 1 mg/mL | percentage of impurities ([2]; after two months at 25° C.): 20% | percentage of impurities ([2]; after two months at 40° C.): 24%

O=C1C2=C(CCN(Cc3ccccc3)C2)N2CCN=C2N1Cc1ccc(F)cc1F [ONC206, 7-benzyl-4-(2,4-difluorobenzyl)-2,4,6,7,8,9-hexahydroimidazo[1,2-a]pyrido[3,4-e]pyrimidin-5(1H)-one]
half-life ([6]; beagle): 0.7 to 7.1 h | CL/F ([6]; both, Beagle, po): 83.3 to 1680 mL/min/kg | Vd/F ([6]; both, Beagle, po): 25.2 to 259 L/kg | half-life ([6]; both, Beagle, po): 0.7 to 7.1 h
